Assay results published in US11267825B2 (AICURIS GMBH & CO. KG, priority 2017, dated 2022).
Like-named read-outs stand apart in the source and are kept apart here.

Columns and labels:
HBV core protein = HBV core protein (UniProt P03146); type: biochemical; details: read-out: Assembly Activity (IC50); BODIPY-FL labelled core protein, assembly started with NaCl, read after 6 min
Outline: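 Fluorescence-quenching assembly assay using E. coli-expressed core protein 1–149 plus Cys150, labelled with BODIPY-FL maleimide, at 1.0–2.0 μM in 50 mM HEPES pH 7.5, 0.5% DMSO. Assembly started with NaCl to […]; fluorescence (ex 477/em 525 nm) read after 6 min. EC50 by non-linear regression, 8-point 0.5-log dilutions.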

HBV = assay: Determination of HBV DNA from the supernatants of HepAD38 cells (anti-HBV activity); type: cell-based, hepatitis B virus; details: Hepatitis B virus, read-out: Cell Activity (EC50)
Outline: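 HepAD38 cells (60,000/well) were treated with half-log compound dilutions in tetracycline-free medium to induce HBV production. On day 6, HBV DNA was purified from filtered supernatant and quantified by real-time PCR against plasmid standards. EC50 values came from non-linear regression of relative copy numbers, typically from three experiments in triplicate.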

[1] = 144 h, HBV DNA in HepAD38 supernatant at day 6

HBV core protein, sequence (P03146 whole entry, looked up): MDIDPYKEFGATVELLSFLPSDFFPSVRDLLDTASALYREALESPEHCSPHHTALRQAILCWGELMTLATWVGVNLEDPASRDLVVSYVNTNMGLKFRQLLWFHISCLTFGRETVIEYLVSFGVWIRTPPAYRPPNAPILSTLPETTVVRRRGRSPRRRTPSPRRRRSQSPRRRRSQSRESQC

Structure (SMILES) | IC50 (HBV core protein) [µM] | EC50 (HBV; [1]) [µM] | EC50 (HBV; HePAD38, 144 h) [µM]
O=C(CC1CCOCC1)Nc1nc2c(s1)CN(C(=O)c1cc3ccccc3[nH]1)CC2 [Example 20, N-[5-(1H-indole-2-carbonyl)-4H,5H,6H,7H-[1,3]thiazolo[5,4-c]pyridin-2-yl]-2-(oxan-4-yl)acetamide] | < 5 | < 1 | 
Cc1ccc(F)c2[nH]c(C(=O)N3CCc4nc(NCC5CCOC5)sc4C3)cc12 (stereo not drawn) [Example 114, 5-(7-fluoro-4-methyl-1H-indole-2-carbonyl)-N-[(oxolan-3-yl)methyl]-4H,5H,6H,7H-[1,3]thiazolo[5,4-c]pyridin-2-amine] | 5 to 10 | < 1 | 
Cc1nc2c(s1)CN(C(=O)c1cc3c(Cl)cc(F)cc3[nH]1)CC2 [Example 187, 4-chloro-6-fluoro-2-{2-methyl-4H,5H,6H,7H-[1,3]thiazolo[5,4-c]pyridine-5-carbonyl}-1H-indole] | < 5 | < 1 | 
O=C(c1cc2ccccc2[nH]1)N1CCc2nc(NC3CCC(O)CC3)sc2C1 (stereo not drawn) [Example 67, 4-{[5-(1H-indole-2-carbonyl)-4H,5H,6H,7H-[1,3]thiazolo[5,4-c]pyridin-2-yl]amino}cyclohexan-1-ol] | < 5 | < 1 | 
CC(C)[C@H](N)C(=O)OCC1(CNc2nc3c(s2)CN(C(=O)c2cc4c(Cl)cc(F)cc4[nH]2)CC3)CC1 [Example 229, [1-({[5-(4-chloro-6-fluoro-1H-indole-2-carbonyl)-4H,5H,6H,7H-[1,3]thiazolo[5,4-c]pyridin-2-yl]amino}methyl)cyclopropyl]methyl (2S)-2-amino-3-methylbutanoate] | < 5 | < 1 | 
CC(C)(C)OC(=O)N1CCC(O)(CNc2nc3c(s2)CN(C(=O)c2cc4ccccc4[nH]2)CC3)CC1 [Example 219, tert-butyl 4-hydroxy-4-({[5-(1H-indole-2-carbonyl)-4H,5H,6H,7H-[1,3]thiazolo[5,4-c]pyridin-2-yl]amino}methyl)piperidine-1-carboxylate] | 5 to 10 | < 1 | 
O=C(c1cc2ccccc2[nH]1)N1CCc2nc(NC3CC(F)(F)C3)sc2C1 [Example 416, N-(3,3-difluorocyclobutyl)-5-(1H-indole-2-carbonyl)-4H,5H,6H,7H-[1,3]thiazolo[5,4-c]pyridin-2-amine] | 5 to 10 | < 1 | 
Nc1nc2c(s1)CN(C(=O)c1cc3c(F)cccc3[nH]1)CC2 [Example 195, 5-(4-fluoro-1H-indole-2-carbonyl)-4H,5H,6H,7H-[1,3]thiazolo[5,4-c]pyridin-2-amine] | 5 to 10 | 1 to 10 | 
COCC1(C(=O)Nc2nc3c(s2)CN(C(=O)c2cc4ccccc4[nH]2)CC3)CC1 [Example 330, N-[5-(1H-indole-2-carbonyl)-4H,5H,6H,7H-[1,3]thiazolo[5,4-c]pyridin-2-yl]-1-(methoxymethyl)cyclopropane-1-carboxamide] | 5 to 10 | < 1 | 
O=C(c1cc2ccccc2[nH]1)N1CCc2nc(NC3COC3)sc2C1 [Example 127, 5-(1H-indole-2-carbonyl)-N-(oxetan-3-yl)-4H,5H,6H,7H-[1,3]thiazolo[5,4-c]pyridin-2-amine] | < 5 | < 1 | 
O=C(c1cc2c(Cl)c(F)ccc2[nH]1)N1CCc2nc(NCC3(CO)CC3)sc2C1 [Example 251, [1-({[5-(4-chloro-5-fluoro-1H-indole-2-carbonyl)-4H,5H,6H,7H-[1,3]thiazolo[5,4-c]pyridin-2-yl]amino}methyl)cyclopropyl]methanol] | < 5 | < 1 | 
CNC(=O)C1(CNc2nc3c(s2)CN(C(=O)c2cc4ccccc4[nH]2)CC3)CCC1 [Example 428, 1-({[5-(1H-indole-2-carbonyl)-4H,5H,6H,7H-[1,3]thiazolo[5,4-c]pyridin-2-yl]amino}methyl)-N-methylcyclobutane-1-carboxamide] | < 5 | < 1 | 
O=C(c1cc2c(C(F)F)ccc(F)c2[nH]1)N1CCc2nc(NCC3CCOC3)sc2C1 (stereo not drawn) [Example 322, 5-[4-(difluoromethyl)-7-fluoro-1H-indole-2-carbonyl]-N-[(oxolan-3-yl)methyl]-4H,5H,6H,7H-[1,3]thiazolo[5,4-c]pyridin-2-amine] | < 5 | < 1 | 
CC(C)OC(=O)[C@H](C)NP(=O)(OCC1(CNc2nc3c(s2)CN(C(=O)c2cc4c(F)cc(F)cc4[nH]2)CC3)CC1)Oc1ccccc1 (stereo partly drawn) [Example 37, Propan-2-yl (2S)-2-[({[1-({[5-(4,6-difluoro-1H-indole-2-carbonyl)-4H,5H,6H,7H-[1,3]thiazolo[5,4-c]pyridin-2-yl]amino}methyl)cyclopropyl]methoxy}(phenoxy)phosphoryl)amino]propanoate] | < 100 |  | < 1
CC(C)(C)C(=O)Nc1nc2c(s1)CN(C(=O)c1cc3ccccc3[nH]1)CC2 [Example 275, N-[5-(1H-indole-2-carbonyl)-4H,5H,6H,7H-[1,3]thiazolo[5,4-c]pyridin-2-yl]-2,2-dimethylpropanamide] | 5 to 10 | < 1 | 
Nc1nc2c(s1)CN(C(=O)c1cc3c(Cl)cccc3[nH]1)CC2 [Example 210, 5-(4-chloro-1H-indole-2-carbonyl)-4H,5H,6H,7H-[1,3]thiazolo[5,4-c]pyridin-2-amine] | < 5 | < 1 | 
CC(F)(F)c1cc(F)cc2[nH]c(C(=O)N3CCc4nc(NCC5(O)CCC5)sc4C3)cc12 [Example 371, 1-[({5-[4-(1,1-difluoroethyl)-6-fluoro-1H-indole-2-carbonyl]-4H,5H,6H,7H-[1,3]thiazolo[5,4-c]pyridin-2-yl}amino)methyl]cyclobutan-1-ol] | < 5 | < 1 | 
Cc1nc2c(s1)CN(C(=O)c1cc3c(C)cc(F)cc3[nH]1)CC2 [Example 190, 6-fluoro-4-methyl-2-{2-methyl-4H,5H,6H,7H-[1,3]thiazolo[5,4-c]pyridine-5-carbonyl}-1H-indole] | < 5 | < 1 | 
CCc1cccc2[nH]c(C(=O)N3CCc4nc(NC5(CO)CCC5)sc4C3)cc12 [Example 300, (1-{[5-(4-ethyl-1H-indole-2-carbonyl)-4H,5H,6H,7H-[1,3]thiazolo[5,4-c]pyridin-2-yl]amino}cyclobutyl)methanol] | < 5 | < 1 | 
O=C(c1cc2ccccc2[nH]1)N1CCc2nc(NC3(c4c[nH]nn4)CC(F)(F)C3)sc2C1 [Example 430, N-[3,3-difluoro-1-(1H-1,2,3-triazol-4-yl)cyclobutyl]-5-(1H-indole-2-carbonyl)-4H,5H,6H,7H-[1,3]thiazolo[5,4-c]pyridin-2-amine] | < 5 | < 1 | 
CCc1ccc(F)c2[nH]c(C(=O)N3CCc4nc(NCC5CCOC5)sc4C3)cc12 (stereo not drawn) [Example 254, 5-(4-ethyl-7-fluoro-1H-indole-2-carbonyl)-N-[(oxolan-3-yl)methyl]-4H,5H,6H,7H-[1,3]thiazolo[5,4-c]pyridin-2-amine] | < 5 | < 1 | 
COCC(C)Nc1nc2c(s1)CN(C(=O)c1cc3ccccc3[nH]1)CC2 (stereo not drawn) [Example 70, 5-(1H-indole-2-carbonyl)-N-(1-methoxypropan-2-yl)-4H,5H,6H,7H-[1,3]thiazolo[5,4-c]pyridin-2-amine] | < 5 | < 1 | 
COC1COCCC1Nc1nc2c(s1)CN(C(=O)c1cc3ccccc3[nH]1)CC2 (stereo not drawn) [Example 231, 5-(1H-indole-2-carbonyl)-N-(3-methoxyoxan-4-yl)-4H,5H,6H,7H-[1,3]thiazolo[5,4-c]pyridin-2-amine] | 5 to 10 | < 1 | 
Nc1nc2c(s1)CN(C(=O)c1cc3c(C(F)F)cccc3[nH]1)CC2 [Example 293, 5-[4-(difluoromethyl)-1H-indole-2-carbonyl]-4H,5H,6H,7H-[1,3]thiazolo[5,4-c]pyridin-2-amine] | < 5 | < 1 | 
Nc1nc2c(s1)CN(C(=O)c1cc3ccc(Cl)c(Cl)c3[nH]1)CC2 [Example 148, 5-(6,7-dichloro-1H-indole-2-carbonyl)-4H,5H,6H,7H-[1,3]thiazolo[5,4-c]pyridin-2-amine] | < 5 | 1 to 10 | 
O=C(c1cc2c(F)ccc(F)c2[nH]1)N1CCc2nc(NCC3(CO)CC3)sc2C1 [Example 59, [1-({[5-(4,7-difluoro-1H-indole-2-carbonyl)-4H,5H,6H,7H-[1,3]thiazolo[5,4-c]pyridin-2-yl]amino}methyl)cyclopropyl]methanol] | < 5 | < 1 | 
Cc1cc(F)cc2[nH]c(C(=O)N3CCc4nc(NCC5(CO)CC5)sc4C3)cc12 [Example 271, [1-({[5-(6-fluoro-4-methyl-1H-indole-2-carbonyl)-4H,5H,6H,7H-[1,3]thiazolo[5,4-c]pyridin-2-yl]amino}methyl)cyclopropyl]methanol] | < 5 | < 1 | 
Cc1nc2c(s1)CN(C(=O)c1cc3c(Cl)cccc3[nH]1)CC2 [Example 211, 4-chloro-2-{2-methyl-4H,5H,6H,7H-[1,3]thiazolo[5,4-c]pyridine-5-carbonyl}-1H-indole] | < 5 | < 1 | 
O=C(c1cc2ccccc2[nH]1)N1CCc2nc(CNCc3ccccc3)sc2C1 [Example 74, Benzyl({[5-(1H-indole-2-carbonyl)-4H,5H,6H,7H-[1,3]thiazolo[5,4-c]pyridin-2-yl]methyl})amine] | < 100 | 1 to 10 | 
O=C(c1cc2ccccc2[nH]1)N1CCc2nc(NCCCO)sc2C1 [Example 129, 3-{[5-(1H-indole-2-carbonyl)-4H,5H,6H,7H-[1,3]thiazolo[5,4-c]pyridin-2-yl]amino}propan-1-ol] | < 5 | < 1 | 
